From US20240148809A1, “CANNABIS PREVENTS NK IN[…] CANCER AND INCREASES NK FUNCTION” (The Regents of the University of California, priority 2020, published 2024)

How the values were obtained:
[1] = test system: Oral Squamous Carcinoma Cells (OSCCs); assay: Cell death assay in OSCCs (loss of forward scatter and propidium iodide staining, flow cytometry); assay type: cell-based, human; conditions: for % PI: Percent cell death induced in total population of tumor cells, as visualized by PI / % decrease in FS: Percent of cells that lost FS in total population of tumor cells: OSCC, overnight
Method: (§1) Oral Squamous Carcinoma Cells (OSCCs) and stem-like Oral Squamous Carcinoma Stem Cells (OSCSCs) were isolated from tumors of oral cancer patients at UCLA, and cultured in RPMI 1640 supplemented with 10% FBS (Gemini Bio-Products, CA, USA), 1.4% antibiotic antimycotic, 1% sodium pyruvate, 1.4% non-essential amino acids, 1% L-glutamine, 0.2% gentamicin (Gemini Bio-Products, CA, USA), and 0.15% sodium bicarbonate (Fisher Scientific, PA, USA).
(§2) OSCCs and OSCSCs were treated with different concentrations of Win55,2122-2 and cis-diamminedichloridoplatinum (II) (CDDP) as shown in FIGS. 1A-1B, FIG. 2 and Tables 1 and 2, and cultured overnight at 37 C in 5% CO2.
(§3) After an overnight incubation the cells were washed twice and stained with Propidium iodide at a concentration of […], as described by Jewett, A., et al., J Immunol, 1997. 159(10): p. 4815-22; Jewett, A. and B. Bonavida, J Clin Immunol, 1995. 15(1): p. 35-44; and Jewett, A. and B. Bonavida, J Immunol, 1996. 156(3): p. 907-15, each of which is incorporated herein by reference in its entirety.
(§4) Flow cytometric analysis was performed using Attune flow cytometer. Briefly, cells were analyzed based on Forward angle light scatter (FS) and Side scatter (SS), and the proportions of cells that had lost FS and became small were determined in total populations of tumor cells. Untreated and DMSO treated tumors were used as controls. In addition, the proportions of cells that were stained with PI were also determined.
OSCCs are differentiated oral squamous carcinoma cells; OSCCs were treated with different concentrations of Win55,2122-2, as indicated in FIGS. 1A-1B and Table 1.

[2] = test system: Oral Squamous Carcinoma Stem Cells (OSCSCs); assay: Cell death assay in OSCSCs (loss of forward scatter and propidium iodide staining, flow cytometry); assay type: cell-based, human; conditions: for % PI: propidium iodide staining / % of decrease in FS: Percent of cells that lost FS in total population of tumor cells: overnight
Method: as §1, §2, §3, §4
OSCSCs are stem like oral squamous carcinoma cells; OSCSCs were treated with different concentrations of Win55,2122-2, as indicated in FIG. 2 and Table 2.

[3] = test system: NK cells in PBMCs (cytotoxicity against OSCSCs); assay: 51Cr release assay with PBMCs of treated hu-BLT mice against OSCSCs; assay type: in vivo; conditions: IP for 27 days, PBMCs treated with IL-2 overnight, in words
Method: (§5) PBMCs (FIG. 11A and FIG. 11B) and CD3+ T cells (FIG. 11C) were isolated from hu-BLT mice after treatment of WIN 55,212-2 (intraperitoneal (IP) injection every 2 days at 2 mg/Kg in DMSO+saline for 27 days before sacrifice) or IL-15 (IP injection of 5 μg per mice for 27 days). PBMCs were isolated from peripheral blood and treated with IL-2 (1000 u/ml) overnight before they were used in 51 Cr release assay. The Lytic units (LU) 30/10^6 cells were determined by plotting the % cytotoxicity obtained at different effector to target ratios, and using that curve to determine the inverse number of NK cells required to lyse 30% of OSCSCs×100. The numbers of LU were then adjusted based on the % of NK cells obtained by flow cytometric analysis (FIG. 11A). PBMCs and CD3+ T cells culture supernatants were collected and IFN-γ secretions were determined using ELISA (FIG. 11B and FIG. 11C). CD3 T cells were isolated from splenocytes by negative selection of CD3+ T cells using an isolation kit (Stem cell technologies).

PBMCs (IFN-γ) [4] = assay: IFN-γ ELISA of PBMC culture supernatants of treated hu-BLT mice; assay type: in vivo; conditions: IP for 27 days, in words
Method: as §5

CD3+ T cells (IFN-γ) = assay: IFN-γ ELISA of culture supernatants of CD3+ T cells from splenocytes of treated hu-BLT mice; assay type: in vivo; conditions: IP for 27 days, in words
Method: as §5

PBMCs (IFN-γ) [5] = assay: ELISPOT for IFN-γ spots in PBMCs of breast cancer patient P38/P77 treated with CBD; assay type: in vivo, human; conditions: in words
Method: FIG. 10A-FIG. 10B show results of an enzyme-linked immunospot (ELISPOT) assay that was conducted to determine the numbers of IFN-γ spots representing the number of cells expressing IFN-γ. Treated (IL2, IL2+antiCD16, IL2+antiCD3/28) and untreated PMBC cells of a breast cancer patient P38 (who was treated with CBD) compared to two healthy control subjects, H43 and H44 (FIG. 10A). Treated (IL2, IL2+antiCD16, IL2+antiCD3/28) and untreated PMBC cells of a breast cancer patient P77 VB (who was treated with CBD) compared to a healthy control subject, H74 (FIG. 10B).
80 μl of anti-human IFN-γ capture antibody was added to each well of a 96-well high-protein-binding PVDF filter plate and incubated overnight at 4° C. The plate was washed with […] of PBS once before adding samples into the plate. 50,000 cells in 200 μl of RPMI were added into each well and incubate at 37° C., 5% CO2 overnight. After incubation, the plate was washed twice with 200 μl PBS followed by 0.05% 200 μl Tween-PBS twice. […] of anti-human IFN-γ detection antibody was added into each well and incubated at room temperature for 2 hours and the plate was washed three times with 200 μI/well of 0.05% Tween-PBS. 80 μI/well of tertiary solution which was made from 1:1000 diluted Strep-AP was added in the plate and incubated for 30 minutes. […]

CS(=O)(=O)O.Cc1c(C(=O)c2cccc3ccccc23)c2cccc3c2n1[C@H](CN1CCOCC1)CO3 [Win55,2122-2, (R)-(+)-[2,3-Dihydro-5-methyl-3-(4-morpholinylmethyl)pyrrolo[1,2,3-de]-1,4-benzoxazin-6-yl]-1-naphthalenylmethanone mesylate]
% PI: Percent cell death induced in total population of tumor cells, as visualized by PI ([1]; 5 μM): 23.1% | % decrease in FS: Percent of cells that lost FS in total population of tumor cells ([1]; 5 μM): 52% | % PI: Percent cell death induced in total population of tumor cells, as visualized by PI ([1]; 25 μM): 32.9% | % decrease in FS: Percent of cells that lost FS in total population of tumor cells ([1]; 25 μM): 75% | % PI: Percent cell death induced in total population of tumor cells, as visualized by PI ([1]; 50 μM): 51.6% | % decrease in FS: Percent of cells that lost FS in total population of tumor cells ([1]; 50 μM): 78% | % PI: Percent cell death induced in total population of tumor cells, as visualized by PI ([1]; 100 μM): 51.6% | % decrease in FS: Percent of cells that lost FS in total population of tumor cells ([1]; 100 μM): 77% | induction of cell death in differentiated oral tumors ([1]; OSCCs, in words): potent inducer of cell death | % PI: propidium iodide staining ([2]; 5 μM): 11.5% | % of decrease in FS: Percent of cells that lost FS in total population of tumor cells ([2]; 5 μM): 15% | % PI: propidium iodide staining ([2]; 25 μM): 26.3% | % of decrease in FS: Percent of cells that lost FS in total population of tumor cells ([2]; 25 μM): 24% | % PI: propidium iodide staining ([2]; 50 μM): 21.7% | % of decrease in FS: Percent of cells that lost FS in total population of tumor cells ([2]; 50 μM): 16% | cell death by staining with PI ([2]; compared to untreated or DMSO treated tumors, in words): no or moderate levels of cell death | change of FS ([2]; even at the higher concentrations, in words): did not change FS | NK cell mediated cytotoxicity in PBMC [3]: higher | IFN-γ secretion in PBMC (PBMCs (IFN-γ) [4]): higher | IFN-γ secretion in CD3+ T cells (CD3+ T cells (IFN-γ)): higher

IL-15: IL-15, IP injection of 5 μg per mice for 27 days in hu-BLT mice
NK cell mediated cytotoxicity in PBMC [3]: higher | IFN-γ secretion in CD3+ T cells (CD3+ T cells (IFN-γ)): higher

N.N.[Cl][Pt][Cl] [CDDP, cis-diamminedichloridoplatinum (II)]
% PI: Percent cell death induced in total population of tumor cells, as visualized by PI ([1]; 30 μg/ml): 23.8% | % decrease in FS: Percent of cells that lost FS in total population of tumor cells ([1]; 30 μg/ml): 51% | % PI: Percent cell death induced in total population of tumor cells, as visualized by PI ([1]; 50 μg/ml): 18.9% | % decrease in FS: Percent of cells that lost FS in total population of tumor cells ([1]; 50 μg/ml): 53%

C=C(C)[C@@H]1CCC(C)=C[C@H]1c1c(O)cc(CCCCC)cc1O [CBD, Cannabidiol]
PBMC expression of IFN-γ (ELISPOT) compared to healthy control (PBMCs (IFN-γ) [5]): Comparable
